Source: ChEMBL document CHEMBL1201862, “PubChem BioAssay data set” (2004)
Activity calls are given as the source filed them.

Experiments:
HEK293 = assay: cells; assay type: functional, cell-based; conditions: Homo sapiens
[1] = target: T1, Nuclear receptor subfamily 0 group B member 1 (Homo sapiens, UniProt P51843); assay: Luminescence-based cell-based high throughput dose response assay for inhibitors of the orphan nuclear receptor subfamily 0, group B, member 1 (DAX1; NR0B1). [Related pubchem assays (depositor defined):AID504766, AID504790]; assay type: functional
T1 sequence (P51843 whole entry): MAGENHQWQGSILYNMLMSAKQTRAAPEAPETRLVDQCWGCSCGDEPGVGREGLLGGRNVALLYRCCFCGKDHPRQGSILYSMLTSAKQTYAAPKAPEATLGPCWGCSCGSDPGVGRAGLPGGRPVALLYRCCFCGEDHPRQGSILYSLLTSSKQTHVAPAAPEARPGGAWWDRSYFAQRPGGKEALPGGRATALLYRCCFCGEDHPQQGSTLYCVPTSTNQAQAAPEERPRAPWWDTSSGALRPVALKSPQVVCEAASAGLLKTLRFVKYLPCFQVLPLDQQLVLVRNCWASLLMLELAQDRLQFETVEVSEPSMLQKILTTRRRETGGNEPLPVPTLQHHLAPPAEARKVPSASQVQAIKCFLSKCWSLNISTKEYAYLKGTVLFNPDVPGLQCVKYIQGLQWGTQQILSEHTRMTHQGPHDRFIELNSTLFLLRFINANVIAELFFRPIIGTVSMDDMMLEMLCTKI

[2] = target: T2, DNA repair and recombination protein RAD54-like (Homo sapiens, UniProt Q92698); assay: inhibitors of human RAD54 branch migration, confirmation, biochemical, fluorescence, cherry-picked samples, dose series (AID 651657); assay type: functional
T2 sequence (Q92698 whole entry): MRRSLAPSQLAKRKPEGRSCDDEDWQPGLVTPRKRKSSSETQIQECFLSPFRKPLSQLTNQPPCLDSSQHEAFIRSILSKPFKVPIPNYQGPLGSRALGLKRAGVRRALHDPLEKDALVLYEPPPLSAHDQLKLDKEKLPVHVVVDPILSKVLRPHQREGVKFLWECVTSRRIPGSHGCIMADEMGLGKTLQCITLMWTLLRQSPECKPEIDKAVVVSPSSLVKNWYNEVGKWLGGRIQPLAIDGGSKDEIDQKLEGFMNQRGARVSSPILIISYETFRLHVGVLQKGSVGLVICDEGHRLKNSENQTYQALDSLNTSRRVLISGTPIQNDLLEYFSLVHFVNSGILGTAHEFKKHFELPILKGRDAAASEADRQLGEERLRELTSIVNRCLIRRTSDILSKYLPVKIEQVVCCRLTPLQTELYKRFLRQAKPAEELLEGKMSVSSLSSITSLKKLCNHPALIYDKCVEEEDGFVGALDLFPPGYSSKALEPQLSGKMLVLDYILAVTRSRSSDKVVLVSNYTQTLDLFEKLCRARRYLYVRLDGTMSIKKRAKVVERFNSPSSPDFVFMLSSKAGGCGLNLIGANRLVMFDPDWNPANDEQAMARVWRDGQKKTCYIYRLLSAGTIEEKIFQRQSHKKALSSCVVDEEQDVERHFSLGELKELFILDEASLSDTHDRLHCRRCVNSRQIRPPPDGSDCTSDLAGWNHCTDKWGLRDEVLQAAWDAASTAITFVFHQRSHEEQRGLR

[3] = NIH-3T3 fibroblast cytotoxicity, dose response, cytotoxicity control, cell-based, fluorescence, Alamar Blue, secondary assay (AID 2327); assay type: functional;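 further: NIH-3T3 mouse fibroblasts cultured with fluconazole at 8 µg/mL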
[4] = insulin promoter down-regulators in MIN6 cells, imaging, high-content screening, mouse beta cells (AID 1628); assay type: functional
[5] = test system: Streptococcus sp. 'group A'; assay: growth inhibition of control SK(-) GAS strain, dose response, counter-screen for streptokinase expression inhibitor project, luminescence, kanamycin, BacTiterGlo, confirmation (AID 1900); assay type: functional, organism-based
cells [6] = assay type: functional, cell-based
[7] = cytotoxicity in MIN6 insulinoma cells, dose response, cytotoxicity control, cell-based, mouse insulinoma (AID 2122); assay type: functional;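 further: confirmatory high-throughput counterscreen run to flag cytotoxic compounds; mouse MIN-6 beta cells carrying an insulin promoter eGFP reporter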
[8] = C. albicans growth with fluconazole, confirmation, fluorescence, retest (AID 2467); assay type: functional, cell-based
cells [9] = assay type: functional, cell-based; remark: listed apart in the source
[10] = target: T3, Serine/threonine-protein phosphatase (Candida dubliniensis (strain CD36 / CBS 7987 / NCPF 3949 / NRRLY-17841) (Yeast), UniProt B9W6M3); assay: calcineurin pathway inhibitors in yeast reporter, dose response, S. cerevisiae, CDRE-lacZ, luminescence, secondary (AID 2388); assay type: functional, cell-based;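 further: yeast reporter cells carrying a calcineurin-responsive lacZ construct stimulated with calcium chloride; luminescent beta-galactosidase reporter signal in whole cells rather than isolated phosphatase activity; potency for inhibition where a drop in reporter signal means calcineurin blockade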
T3 sequence (B9W6M3 whole entry): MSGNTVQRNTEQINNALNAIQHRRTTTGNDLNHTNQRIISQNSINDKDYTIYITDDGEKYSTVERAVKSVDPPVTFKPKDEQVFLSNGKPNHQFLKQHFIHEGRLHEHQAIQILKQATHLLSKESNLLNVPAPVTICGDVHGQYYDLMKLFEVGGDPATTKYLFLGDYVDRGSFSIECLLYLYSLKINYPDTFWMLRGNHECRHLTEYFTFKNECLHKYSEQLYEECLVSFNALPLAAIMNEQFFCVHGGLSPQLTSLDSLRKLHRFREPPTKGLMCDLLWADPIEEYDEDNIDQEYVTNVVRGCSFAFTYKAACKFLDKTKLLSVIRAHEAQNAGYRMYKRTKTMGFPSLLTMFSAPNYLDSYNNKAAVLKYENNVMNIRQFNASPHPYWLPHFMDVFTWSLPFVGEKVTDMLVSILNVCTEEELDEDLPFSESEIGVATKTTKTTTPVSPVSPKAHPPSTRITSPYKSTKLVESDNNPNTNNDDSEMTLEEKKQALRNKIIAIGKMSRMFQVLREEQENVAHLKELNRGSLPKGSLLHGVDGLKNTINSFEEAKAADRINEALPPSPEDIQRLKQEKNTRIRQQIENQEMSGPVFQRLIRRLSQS

Streptococcus = assay: Group A Streptococcus viability loss, dose response, counter-screen for streptokinase expression inhibitor project, luminescence, BacTiterGlo (AID 1915); assay type: functional, organism-based;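 further: potency for reduction of bacterial viability or growth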
[11] = target: ATP-dependent molecular chaperone HSP82 (Candida albicans (strain WO-1) (Yeast), UniProt C4YTQ8); assay: loss of DOC-induced GRE-beta-galactosidase reporter signal, dose response, Hsp90 inhibitor project, S. cerevisiae, luminescence (AID 2400); assay type: functional, cell-based;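 further: beta-galactosidase luminescence from glucocorticoid response element reporter as proxy for Hsp90 function; inhibitor potency where signal loss means Hsp90 inhibition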
[12] = target: T4, Sentrin-specific protease 8 (Homo sapiens, UniProt Q96LD8); assay: SENP8 protease inhibitors, SAR follow-up, biochemical, luminescence (AID 504501); assay type: functional
T4 sequence (Q96LD8 whole entry): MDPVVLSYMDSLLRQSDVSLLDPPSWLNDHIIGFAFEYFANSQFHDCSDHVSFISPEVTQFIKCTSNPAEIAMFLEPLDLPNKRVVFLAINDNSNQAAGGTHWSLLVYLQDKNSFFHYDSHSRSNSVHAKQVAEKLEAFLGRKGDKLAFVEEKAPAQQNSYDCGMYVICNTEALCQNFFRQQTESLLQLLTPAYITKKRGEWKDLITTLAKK

Caspase-3 = target: T5, Caspase-3 (Homo sapiens, UniProt P42574); assay: SAR Analysis of small molecule inhibitors of Sentrin-specific proteases (SENPs) using a Caspase-3 Selectivity assay. [Related pubchem assays (depositor defined):AID2540, AID2599, AID434973, AID489001]; assay type: functional
T5 sequence (P42574 whole entry): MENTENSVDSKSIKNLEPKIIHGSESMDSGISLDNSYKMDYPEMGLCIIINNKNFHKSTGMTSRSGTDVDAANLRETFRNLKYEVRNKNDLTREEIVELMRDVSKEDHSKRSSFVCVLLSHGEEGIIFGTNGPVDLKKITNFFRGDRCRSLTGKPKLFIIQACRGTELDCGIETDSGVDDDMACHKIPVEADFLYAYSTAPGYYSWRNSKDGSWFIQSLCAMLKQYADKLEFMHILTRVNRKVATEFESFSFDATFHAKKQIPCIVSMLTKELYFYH

[13] = target: T6, Sentrin-specific protease 6 (Homo sapiens, UniProt Q9GZR1); assay: SAR Analysis of small molecule inhibitors of Sentrin-specific protease 6 (SENP6) using a Luminescent assay. [Related pubchem assays (depositor defined):AID2582, AID2599]; assay type: functional
T6 sequence (Q9GZR1 whole entry): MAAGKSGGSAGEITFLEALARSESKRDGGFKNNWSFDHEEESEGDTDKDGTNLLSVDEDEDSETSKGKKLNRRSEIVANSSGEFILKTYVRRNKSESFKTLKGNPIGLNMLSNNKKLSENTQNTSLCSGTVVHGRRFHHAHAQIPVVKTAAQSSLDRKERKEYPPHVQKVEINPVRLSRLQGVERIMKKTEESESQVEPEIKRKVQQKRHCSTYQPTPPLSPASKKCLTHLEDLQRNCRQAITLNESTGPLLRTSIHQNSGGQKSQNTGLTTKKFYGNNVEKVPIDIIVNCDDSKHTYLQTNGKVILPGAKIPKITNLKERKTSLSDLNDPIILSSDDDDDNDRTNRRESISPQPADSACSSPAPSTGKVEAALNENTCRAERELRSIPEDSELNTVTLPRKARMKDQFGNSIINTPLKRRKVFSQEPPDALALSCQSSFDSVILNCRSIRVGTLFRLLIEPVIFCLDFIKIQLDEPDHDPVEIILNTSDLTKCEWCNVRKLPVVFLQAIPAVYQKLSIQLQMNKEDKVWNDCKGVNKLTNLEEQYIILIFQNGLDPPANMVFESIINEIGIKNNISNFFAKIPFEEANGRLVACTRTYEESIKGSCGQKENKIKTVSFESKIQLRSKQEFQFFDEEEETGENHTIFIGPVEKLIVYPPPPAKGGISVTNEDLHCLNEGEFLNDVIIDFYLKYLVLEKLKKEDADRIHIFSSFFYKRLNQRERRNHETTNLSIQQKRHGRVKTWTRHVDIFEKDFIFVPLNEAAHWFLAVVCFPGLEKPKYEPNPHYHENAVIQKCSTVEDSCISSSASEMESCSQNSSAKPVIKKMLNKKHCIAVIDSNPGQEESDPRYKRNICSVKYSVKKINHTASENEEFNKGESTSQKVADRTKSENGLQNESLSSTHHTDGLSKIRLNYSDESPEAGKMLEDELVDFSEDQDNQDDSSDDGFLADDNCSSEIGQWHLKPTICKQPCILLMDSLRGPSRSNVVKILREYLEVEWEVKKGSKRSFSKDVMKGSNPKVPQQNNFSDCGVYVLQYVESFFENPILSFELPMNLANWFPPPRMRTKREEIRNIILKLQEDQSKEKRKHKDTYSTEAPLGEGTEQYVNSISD

[14] = target: T7, Sentrin-specific protease 7 (Homo sapiens, UniProt Q9BQF6); assay: SENP7 protease inhibitors, SAR follow-up, biochemical, luminescence (AID 504497); assay type: functional
T7 sequence (Q9BQF6 whole entry): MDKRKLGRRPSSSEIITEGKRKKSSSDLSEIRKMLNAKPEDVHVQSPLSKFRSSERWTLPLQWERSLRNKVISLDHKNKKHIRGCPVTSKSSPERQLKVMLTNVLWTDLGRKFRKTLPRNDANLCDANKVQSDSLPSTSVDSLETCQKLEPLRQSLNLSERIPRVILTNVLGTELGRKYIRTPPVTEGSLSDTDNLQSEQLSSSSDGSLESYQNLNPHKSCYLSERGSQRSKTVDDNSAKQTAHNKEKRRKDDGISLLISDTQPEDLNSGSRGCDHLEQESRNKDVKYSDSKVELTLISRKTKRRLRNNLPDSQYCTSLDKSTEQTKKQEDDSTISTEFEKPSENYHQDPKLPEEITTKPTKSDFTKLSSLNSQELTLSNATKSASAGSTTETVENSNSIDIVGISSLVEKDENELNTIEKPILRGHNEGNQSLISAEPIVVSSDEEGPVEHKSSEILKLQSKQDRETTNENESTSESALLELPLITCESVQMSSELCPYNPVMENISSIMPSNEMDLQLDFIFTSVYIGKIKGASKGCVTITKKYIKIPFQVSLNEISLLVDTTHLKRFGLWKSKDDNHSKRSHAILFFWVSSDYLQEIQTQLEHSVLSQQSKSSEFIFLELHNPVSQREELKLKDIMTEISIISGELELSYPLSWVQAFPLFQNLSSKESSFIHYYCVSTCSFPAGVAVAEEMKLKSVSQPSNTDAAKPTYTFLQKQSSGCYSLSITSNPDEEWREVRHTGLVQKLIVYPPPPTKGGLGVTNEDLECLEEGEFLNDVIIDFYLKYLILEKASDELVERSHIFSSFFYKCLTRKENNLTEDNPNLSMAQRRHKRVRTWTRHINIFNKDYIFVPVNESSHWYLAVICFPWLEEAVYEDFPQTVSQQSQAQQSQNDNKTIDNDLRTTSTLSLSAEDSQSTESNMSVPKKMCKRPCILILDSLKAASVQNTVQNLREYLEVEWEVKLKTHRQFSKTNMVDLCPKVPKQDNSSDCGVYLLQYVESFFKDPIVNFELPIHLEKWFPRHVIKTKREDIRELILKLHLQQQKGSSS

Chain of ATP-dependent molecular chaperone HSP82 (C4YTQ8 whole entry): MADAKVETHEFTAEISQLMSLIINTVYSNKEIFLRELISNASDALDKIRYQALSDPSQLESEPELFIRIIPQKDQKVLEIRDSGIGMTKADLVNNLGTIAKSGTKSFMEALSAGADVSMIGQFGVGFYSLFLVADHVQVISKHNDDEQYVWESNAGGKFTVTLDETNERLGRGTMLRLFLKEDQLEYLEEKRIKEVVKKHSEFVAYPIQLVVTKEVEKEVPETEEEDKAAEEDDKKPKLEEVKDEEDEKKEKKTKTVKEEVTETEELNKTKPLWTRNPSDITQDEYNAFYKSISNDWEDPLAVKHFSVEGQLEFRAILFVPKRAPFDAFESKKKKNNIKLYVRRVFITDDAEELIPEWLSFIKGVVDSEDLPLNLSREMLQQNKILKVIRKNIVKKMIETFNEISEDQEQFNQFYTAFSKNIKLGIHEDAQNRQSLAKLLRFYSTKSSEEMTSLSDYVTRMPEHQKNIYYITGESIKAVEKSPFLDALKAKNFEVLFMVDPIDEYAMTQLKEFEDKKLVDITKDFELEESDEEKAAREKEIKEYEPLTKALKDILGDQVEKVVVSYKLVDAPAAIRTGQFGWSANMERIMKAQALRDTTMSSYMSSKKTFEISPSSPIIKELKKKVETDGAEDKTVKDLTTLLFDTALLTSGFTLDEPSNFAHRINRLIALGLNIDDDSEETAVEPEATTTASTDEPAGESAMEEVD

## Fc1ccc(Nc2nc(-c3cccnc3)cs2)cc1
HEK293
  IC50: > 67.5 µM (inactive)
[1]
  IC50: > 67.5 µM (inactive)

## Cc1ccc(CCNC(=O)CC2Oc3ccc(C)cc3NC2=O)cc1 (centres undefined)
HEK293
  IC50: > 67.5 µM (inactive)
[1]
  IC50: > 67.5 µM (inactive)

## CCCN(CCC)CCCNC(=O)c1cc2c(=O)n(C)c3ccccc3c2n1C
HEK293
  IC50: 24.7 µM (inactive)
[1]
  IC50: > 67.5 µM (inactive)
[2]
  AC50: 36.8 µM (active)

## Oc1ccc(N=Nc2ccc3c(c2)OCCO3)c2cccnc12
[3]
  EC50: 13.7 µM (inconclusive)
[4]
  IC50: 2.15 µM (active)
[5]
  EC50: 0.352 µM (active)
Cells [6]
  EC50: 5.17 µM (active)
[7]
  IC50: 1.37 µM (active)
[8]
  EC50: 1.24 µM (active)
Cells [9]
  EC50: 45.6 µM (active)
[10]
  EC50: > 180 µM (inactive)
Streptococcus
  EC50: 1.15 µM (active)
[11]
  EC50: 12.8 µM (active)

## CCCC(=O)Nc1ccc(-c2nc3cc(Cl)ccc3o2)cc1
[12]
  IC50: > 99 µM (inactive)
Caspase-3
  IC50: > 99 µM (inactive)
[13]
  IC50: > 99 µM (inactive)
[14]
  IC50: > 99 µM (inactive)

## Oc1ccccc1-c1nc(-c2ccccc2)no1
[12]
  IC50: 1.86 µM (active)
Caspase-3
  IC50: 1.09 µM (active)
[13]
  IC50: 1.75 µM (active)
[14]
  IC50: 1.55 µM (active)

## Cc1ccc(NC(=O)CNC(=O)c2ccc(Oc3ccccc3)cc2)nc1
[3]
  EC50: > 150 µM (inactive)
[8]
  EC50: 1.24 µM (active)
[10]
  EC50: > 180 µM (inactive)
[11]
  EC50: 21.7 µM (active)
